Assay results: ChEMBL document CHEMBL4680293, “Tubulin inhibitory activity of a novel colchicine-binding compounds based on a dinaphthospiropyranran scaffold” (Bioorg Med Chem, 2021)
Calls of active or inactive are those of the source. No cut-off for these calls is given here.

Legend:
SW-620 = assay: Anti-cancer activity against human SW-620 cells assessed as cell growth inhibition measured after 48 hrs by SRB method; assay type: functional, cell-based
DU-145 = assay: Anti-cancer activity against human DU-145 cells assessed as cell growth inhibition measured after 48 hrs by SRB method; assay type: functional, cell-based
Tubulin (Homo sapiens) = Tubulin (Homo sapiens) (UniProt P68371+Q9H4B7+P0DPH7+P68366+Q13509+Q71U36+P04350+Q3ZCM7+P07437+P68363+Q9BQE3+Q6PEY2+Q13885+Q9BVA1+Q9BUF5); assay: Disruption of tubulin in human HCT-116 cells assessed as induction of tubulin reorganization at 20 uM after 48 hrs by DAPI staining based immunofluorescence method; assay type: cell-based
SK-MEL-28 = assay: Anti-cancer activity against human SK-MEL-28 cells assessed as cell growth inhibition measured after 48 hrs by SRB method; assay type: functional, cell-based
[1] = Anti-cancer activity against human melanoma cells assessed as cell growth inhibition measured after 48 hrs by SRB method; assay type: functional; conditions: Melanoma cell line
NCI/ADR-RES = assay: Anti-cancer activity against human NCI/ADR-RES cells assessed as cell growth inhibition measured after 48 hrs by SRB method; assay type: functional, cell-based
OVCAR-8 = assay: Anti-cancer activity against human OVCAR-8 cells assessed as cell growth inhibition measured after 48 hrs by SRB method; assay type: functional, cell-based
IGROV-1 = assay: Anti-cancer activity against human IGROV1 cells assessed as cell growth inhibition measured after 48 hrs by SRB method; assay type: functional, cell-based
SNB-19 = assay: Anti-cancer activity against human SNB-19 cells assessed as cell growth inhibition measured after 48 hrs by SRB method; assay type: functional, cell-based
OVCAR-3 = assay: Anti-cancer activity against human OVCAR-3 cells assessed as cell growth inhibition measured after 48 hrs by SRB method; assay type: functional, cell-based
MDA-MB-231 = assay: Anti-cancer activity against human MDA-MB-231 cells assessed as cell growth inhibition measured after 48 hrs by SRB method; assay type: functional, cell-based
SK-OV-3 = assay: Anti-cancer activity against human SK-OV-3 cells assessed as cell growth inhibition measured after 48 hrs by SRB method; assay type: functional, cell-based
[2] = Anti-cancer activity against human renal cancer cells assessed as cell growth inhibition measured after 48 hrs by SRB method; assay type: functional; conditions: Renal cancer cell line
UACC-257 = assay: Anti-cancer activity against human UACC-257 cells assessed as cell growth inhibition measured after 48 hrs by SRB method; assay type: functional, cell-based
Malme-3M = assay: Anti-cancer activity against human Malme-3M cells assessed as cell growth inhibition measured after 48 hrs by SRB method; assay type: functional, cell-based
HCT-116 = assay: Anti-cancer activity against human HCT-116 cells assessed as cell growth inhibition measured after 48 hrs by SRB method; assay type: functional, cell-based
NCI-H460 = assay: Anti-cancer activity against human NCI-H460 cells assessed as cell growth inhibition measured after 48 hrs by SRB method; assay type: functional, cell-based
SN12C = assay: Anti-cancer activity against human SN12C cells assessed as cell growth inhibition measured after 48 hrs by SRB method; assay type: functional, cell-based
K562 = assay: Anti-cancer activity against human K562 cells assessed as cell growth inhibition measured after 48 hrs by SRB method; assay type: functional, cell-based
[3] = Anti-cancer activity against human ovarian cancer cells assessed as cell growth inhibition measured after 48 hrs by SRB method; assay type: functional; conditions: Ovarian cancer cell line
SNB-75 = assay: Anti-cancer activity against human SNB-75 cells assessed as cell growth inhibition measured after 48 hrs by SRB method; assay type: functional, cell-based
[4] = Anti-cancer activity against human central nervous system cells assessed as cell growth inhibition measured after 48 hrs by SRB method; assay type: functional; conditions: CNS cell
SF-295 = assay: Anti-cancer activity against human SF-295 cells assessed as cell growth inhibition measured after 48 hrs by SRB method; assay type: functional, cell-based
MDA-MB-435 = assay: Anti-cancer activity against human MDA-MB-435 cells assessed as cell growth inhibition measured after 48 hrs by SRB method; assay type: functional, cell-based
HOP-62 = assay: Anti-cancer activity against human HOP-62 cells assessed as cell growth inhibition measured after 48 hrs by SRB method; assay type: functional, cell-based
LOX IMVI = assay: Anti-cancer activity against human LOX IMVI cells assessed as cell growth inhibition measured after 48 hrs by SRB method; assay type: functional, cell-based
MDA-MB-468 = assay: Anti-cancer activity against human MDA-MB-468 cells assessed as cell growth inhibition measured after 48 hrs by SRB method; assay type: functional, cell-based
[5] = time 48 hrs, read-out: LC50 (the source's name)

C1=C2CNCC3=Cc4c(ccc5ccccc45)OC23Oc2ccc3ccccc3c21
IC50 (SW-620; SW-620, 48 h): 3.09 µM
GI50 (SW-620; SW-620, time 48 hrs): 2.51 µM
TGI (SW-620; SW-620, time 48 hrs): 10.5 µM
CC50 (SW-620; SW-620, time 48 hrs, read-out: LC50 (the source's name)): 4.28 µM
IC50 (DU-145; DU-145, 48 h): 4.68 µM
GI50 (DU-145; DU-145, time 48 hrs): 3.31 µM
TGI (DU-145; DU-145, time 48 hrs): 11.2 µM
CC50 (DU-145; DU-145, time 48 hrs, read-out: LC50 (the source's name)): 4.41 µM
Activity (Tubulin (Homo sapiens)): Active
TGI (SK-MEL-28): inactive
IC50 (SK-MEL-28; SK-MEL-28, 48 h): 10 µM
GI50 (SK-MEL-28; SK-MEL-28, time 48 hrs): 7.41 µM
GI50 [1]: 4.47 µM
IC50 (NCI/ADR-RES; 48 h): 3.8 µM
GI50 (NCI/ADR-RES; time 48 hrs): 2.09 µM
TGI (NCI/ADR-RES; time 48 hrs): 6.03 µM
CC50 (NCI/ADR-RES; [5]): 4 µM
IC50 (OVCAR-8; OVCAR-8, 48 h): 4.79 µM
GI50 (OVCAR-8; OVCAR-8, time 48 hrs): 3.02 µM
TGI (OVCAR-8; OVCAR-8, time 48 hrs): 14.8 µM
CC50 (OVCAR-8; OVCAR-8, time 48 hrs, read-out: LC50 (the source's name)): 4 µM
IC50 (IGROV-1; IGROV-1, 48 h): 20.9 µM
GI50 (IGROV-1; IGROV-1, time 48 hrs): 9.55 µM
LC50 (concentration killing 50% of cells) (IGROV-1; IGROV-1, time 48 hrs): 4.08 µM
TGI (IGROV-1; IGROV-1, time 48 hrs): 28.8 µM
IC50 (SNB-19; SNB-19, 48 h): 15.8 µM
GI50 (SNB-19; SNB-19, time 48 hrs): 6.92 µM
LC50 (SNB-19; SNB-19, time 48 hrs): 4 µM
TGI (SNB-19; SNB-19, time 48 hrs): 29.5 µM
IC50 (OVCAR-3; OVCAR-3, 48 h): 4.07 µM
GI50 (OVCAR-3; OVCAR-3, time 48 hrs): 2.34 µM
LC50 (OVCAR-3; OVCAR-3, time 48 hrs): 4.71 µM
TGI (OVCAR-3; OVCAR-3, time 48 hrs): 5.5 µM
IC50 (MDA-MB-231; MDA-MB-231, 48 h): 22.9 µM
GI50 (MDA-MB-231; MDA-MB-231, time 48 hrs): 9.33 µM
TGI (MDA-MB-231; MDA-MB-231, time 48 hrs): 26.9 µM
CC50 (MDA-MB-231; MDA-MB-231, time 48 hrs, read-out: LC50 (the source's name)): 4.12 µM
IC50 (SK-OV-3; SK-OV-3, 48 h): 8.13 µM
GI50 (SK-OV-3; SK-OV-3, time 48 hrs): 3.39 µM
TGI (SK-OV-3; SK-OV-3, time 48 hrs): 12.9 µM
CC50 (SK-OV-3; SK-OV-3, time 48 hrs, read-out: LC50 (the source's name)): 4.26 µM
GI50 [2]: 3.98 µM
IC50 (UACC-257; UACC-257, 48 h): 37.2 µM
GI50 (UACC-257; UACC-257, time 48 hrs): 12.6 µM
LC50 (50% lethal concentration) (UACC-257; UACC-257, time 48 hrs): 4 µM
TGI (UACC-257; UACC-257, time 48 hrs): 38.9 µM
IC50 (Malme-3M; 48 h): 36.3 µM
GI50 (Malme-3M; time 48 hrs): 12.6 µM
LC50 (50% lethal concentration) (Malme-3M; time 48 hrs): 4 µM
TGI (Malme-3M; time 48 hrs): 38 µM
IC50 (HCT-116; HCT-116, 48 h): 3.72 µM
GI50 (HCT-116; HCT-116, time 48 hrs): 3.02 µM
LC50 (HCT-116; HCT-116, time 48 hrs): 4 µM
TGI (HCT-116; HCT-116, time 48 hrs): 13.2 µM
IC50 (NCI-H460; NCI-H460, 48 h): 3.72 µM
GI50 (NCI-H460; NCI-H460, time 48 hrs): 3.24 µM
TGI (NCI-H460; NCI-H460, time 48 hrs): 13.2 µM
CC50 (NCI-H460; NCI-H460, time 48 hrs, read-out: LC50 (the source's name)): 4.14 µM
IC50 (SN12C; 48 h): 7.59 µM
GI50 (SN12C; time 48 hrs): 4.27 µM
TGI (SN12C; time 48 hrs): 20 µM
CC50 (SN12C; [5]): 4.08 µM
IC50 (K562; K562, 48 h): 3.55 µM
GI50 (K562; K562, time 48 hrs): 2.95 µM
TGI (K562; K562, time 48 hrs): 21.4 µM
CC50 (K562; K562, time 48 hrs, read-out: LC50 (the source's name)): 4 µM
GI50 [3]: 3.63 µM
IC50 (SNB-75; SNB-75, 48 h): 11.2 µM
GI50 (SNB-75; SNB-75, time 48 hrs): 2.34 µM
LC50 (SNB-75; SNB-75, time 48 hrs): 4.18 µM
TGI (SNB-75; SNB-75, time 48 hrs): 11.5 µM
GI50 [4]: 3.8 µM
IC50 (SF-295; SF-295, 48 h): 5.25 µM
GI50 (SF-295; SF-295, time 48 hrs): 3.09 µM
TGI (SF-295; SF-295, time 48 hrs): 15.5 µM
CC50 (SF-295; SF-295, time 48 hrs, read-out: LC50 (the source's name)): 4 µM
IC50 (MDA-MB-435; MDA-MB-435, 48 h): 2.4 µM
GI50 (MDA-MB-435; MDA-MB-435, time 48 hrs): 1.41 µM
TGI (MDA-MB-435; MDA-MB-435, time 48 hrs): 3.24 µM
IC50 (HOP-62; HOP-62, 48 h): 12.3 µM
GI50 (HOP-62; HOP-62, time 48 hrs): 4.47 µM
TGI (HOP-62; HOP-62, time 48 hrs): 16.6 µM
IC50 (LOX IMVI; 48 h): 3.39 µM
GI50 (LOX IMVI; time 48 hrs): 2.45 µM
LC50 (50% lethal concentration) (LOX IMVI; time 48 hrs): 4 µM
TGI (LOX IMVI; time 48 hrs): 7.41 µM
IC50 (MDA-MB-468; MDA-MB-468, 48 h): 5.89 µM
GI50 (MDA-MB-468; MDA-MB-468, time 48 hrs): 2.04 µM
TGI (MDA-MB-468; MDA-MB-468, time 48 hrs): 7.59 µM
CC50 (MDA-MB-468; MDA-MB-468, time 48 hrs, read-out: LC50 (the source's name)): 4.32 µM
